Data published in BindingDB's records for doi:10.7270/Q2TX3CTT (Broad Institute, 2010).
pEC50: −log10 of the molar value. Where a name gives a salt, the structure may show the parent alone.

Each molecule was assayed against Glycogen synthase kinase-3 beta (Homo sapiens, UniProt P49841) (assay: concentration-response blocking of human GSK3B – biochemical, luminescence, cell-free homogeneous, retest, dose response (AID 434954)).
Sequence of Glycogen synthase kinase-3 beta (P49841 whole entry): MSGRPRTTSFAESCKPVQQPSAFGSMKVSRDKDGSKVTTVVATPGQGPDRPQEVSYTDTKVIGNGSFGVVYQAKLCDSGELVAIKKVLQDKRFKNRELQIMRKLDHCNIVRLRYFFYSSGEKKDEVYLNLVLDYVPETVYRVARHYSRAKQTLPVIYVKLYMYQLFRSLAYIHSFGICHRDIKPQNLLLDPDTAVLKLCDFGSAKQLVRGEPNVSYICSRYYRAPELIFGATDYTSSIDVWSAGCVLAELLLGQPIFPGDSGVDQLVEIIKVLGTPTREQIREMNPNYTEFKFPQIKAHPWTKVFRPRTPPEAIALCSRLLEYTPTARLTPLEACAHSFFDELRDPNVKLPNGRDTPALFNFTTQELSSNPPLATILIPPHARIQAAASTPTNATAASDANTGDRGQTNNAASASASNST
For `Nc1nc(Nc2ccccc2)nc(NC2CCCCC2)c1[N+](=O)[O-]` [N4-cyclohexyl-5-nitro-N2-phenylpyrimidine-2,4,6-triamine], the pEC50 was 5.11. With `FC(F)(F)c1ccc(CSc2nccn2-c2ccccc2)cc1` the pEC50 was less than 3.52. With `O=C(O)CNCC1COc2ccccc2O1` (centres undefined) [MLS000068078] the pEC50 was less than 3.52. Molecule `O=C(Nc1cccc(Cl)c1)Nc1ccnc(-c2cccnc2)n1` [SMR000337179] has a pEC50 of less than 3.52. Work on `COC(=O)c1nnn(-c2nonc2N)c1-c1cccs1` [1-(4-amino-1,2,5-oxadiazol-3-yl)-5-thiophen-2-yl-4-triazolecarboxylic acid methyl ester] yielded a pEC50 of 4.58. `CNCCCOc1cc(C)cc(C)c1C` [N-methyl-3-(2,3,5-trimethylphenoxy)propan-1-amine;oxalic acid] showed a pEC50 of less than 3.52. Molecule `O=C(CSc1nnc(-c2ccncc2)n1-c1ccc(F)cc1)NC(=O)NCc1ccco1` [SMR000065428] has a pEC50 of less than 3.52. `Cc1nc2nc(=O)c3c(n2[nH]1)NC1=C(C(=O)CC(C)(C)C1)C3c1ccccc1` (centres undefined) [MLS000084334] was tested, and the pEC50 was less than 3.52. Molecule `O=C(c1cccs1)c1coc2ccc(O)c(CN(CCO)CCO)c12` [[4-[[bis(2-hydroxyethyl)amino]methyl]-5-oxidanyl-1-benzofuran-3-yl]-thiophen-2-yl-methanone;hydrochloride] has a pEC50 of less than 3.52. Work on `COc1cc(CN=O)ccc1Oc1ccc([N+](=O)[O-])cc1[N+](=O)[O-]` [N-[[4-(2,4-dinitrophenoxy)-3-methoxyphenyl]methylidene]hydroxylamine] yielded a pEC50 of less than 3.52. In the case of `COc1ccc2occ(C(=O)c3cccs3)c2c1`, the pEC50 was 5.39. `Cc1cc(OCC(F)(F)C(F)(F)C(F)(F)C(F)F)nc(N)n1` [SMR000122155] showed a pEC50 of less than 3.52. In the case of `O=C(Nc1cccc(F)c1)c1cccc2c1C(=O)N(C1CCCCC1)C2` [MLS000912875], the pEC50 was less than 3.52. `Cc1ccc(S(=O)(=O)N(C)C)cc1NC(=O)c1ccc(OC(F)(F)F)cc1` [SMR000247294] was tested, and the pEC50 was less than 3.52. `COC(=O)C(CC(C)C)NC(=O)CSc1nc(-c2ccccc2)c(C#N)c(=O)[nH]1` (centres undefined) gave a pEC50 of less than 3.52. In the case of `Nc1nc(NCCOCCO)nc(NC2CCCCC2)c1[N+](=O)[O-]` [SMR000540405], the pEC50 was 5.52. `c1ccc(Nc2ccnc(Nc3ccccc3)n2)cc1` [N*2*,N*4*-Diphenyl-pyrimidine-2,4-diamine] showed a pEC50 of 4.43. In the case of `N#Cc1c(-c2ccc(F)cc2)nc(-c2ccccc2)[nH]c1=O`, the pEC50 was less than 3.52. Molecule `O=C(c1cccc(-c2ccccc2)c1)N1CC[C@@H](N2CCC(O)CC2)[C@H](O)C1` has a pEC50 of less than 3.52. With `C=CCC1(CC=C)CCCN1C(=O)C1CCC(=O)N(CCc2ccc(OC)cc2)C1` (centres undefined) [MLS001072450] the pEC50 was less than 3.52. Molecule `CCOC(=O)CC(=O)CSc1ccc2nnc(-c3cccc(F)c3)n2n1` [ethyl 4-[[3-(3-fluorophenyl)-[1,2,4]triazolo[4,3-b]pyridazin-6-yl]sulfanyl]-3-oxobutanoate] has a pEC50 of less than 3.52. `Cn1c(SCc2nc(-c3ccccc3)no2)nnc1-c1ccco1` was tested, and the pEC50 was less than 3.52. Molecule `CCOC(=O)c1nnn(-c2nonc2N)c1CSc1nnc(N)s1` [MLS000624994] has a pEC50 of less than 3.52. `CCSc1nc(N)nc(-c2cccs2)c1C#N` [2-amino-4-ethylsulfanyl-6-thiophen-2-ylpyrimidine-5-carbonitrile] showed a pEC50 of less than 3.52. With `CCN1CCc2c(sc(NC(=O)CN3C(=O)c4ccccc4C3=O)c2C(N)=O)C1` [2-[2-[1,3-bis(oxidanylidene)isoindol-2-yl]ethanoylamino]-6-ethyl-5,7-dihydro-4H-thieno[2,3-c]pyridine-3-carboxamide;hydrochloride] the pEC50 was less than 3.52. In the case of `CC(C)Cn1nc(NC(=O)c2cccs2)c2cc3ccccc3nc21` [N-[1-(2-methylpropyl)-3-pyrazolo[3,4-b]quinolinyl]-2-thiophenecarboxamide], the pEC50 was 4.67. Molecule `NNc1nccc(Nc2ccccc2C(=O)O)n1` [2-[(2-hydrazinyl-4-pyrimidinyl)amino]benzoic acid] has a pEC50 of 5.53. Work on `Cc1ccccc1-c1nc(CN2CCC(C(=O)N3CCN(c4ccccn4)CC3)CC2)c(C)o1` [[1-[[5-methyl-2-(2-methylphenyl)-4-oxazolyl]methyl]-4-piperidinyl]-[4-(2-pyridinyl)-1-piperazinyl]methanone] yielded a pEC50 of less than 3.52. In the case of `COc1cc(C=C2SC(Nc3ccc(O)cc3)=NC2=O)ccc1O` [MLS000778276], the pEC50 was 4.63. For `COc1ccc(CCNc2nc(-c3ccc(O)cc3)cs2)cc1OC` [SMR000502906], the pEC50 was less than 3.52. `CS(=O)(=O)Nc1cccc(-c2cn3c(n2)SCC3)c1` [MLS001167062] showed a pEC50 of less than 3.52. For `Cc1[nH]n(-c2ccccc2)c(=O)c1/C=N/NC(=O)COc1ccccc1[N+](=O)[O-]` [MLS000592191], the pEC50 was less than 3.52. With `CN(C)c1ccc(-c2nc3ccccc3n2C)cc1` [MLS000089904] the pEC50 was less than 3.52. Work on `COc1ccc(CN(CC(=O)NCc2ccccc2)C(=O)CCC(=O)Nc2nccs2)cc1` yielded a pEC50 of less than 3.52. `CC(=O)N1CCc2c(sc(NC(=O)CN3C(=O)c4ccccc4C3=O)c2C(N)=O)C1` [MLS000419451] gave a pEC50 of 4.71. `Nc1nc(NC2CCCCC2)nc(NCCO)c1[N+](=O)[O-]` [2-[[6-amino-2-(cyclohexylamino)-5-nitro-4-pyrimidinyl]amino]ethanol] showed a pEC50 of 5.66. `O=C(Nc1ncc(Cc2ccccc2Cl)s1)C1CCCO1` (centres undefined) [Tetrahydro-furan-2-carboxylic acid [5-(2-chloro-benzyl)-thiazol-2-yl]-amide] showed a pEC50 of 4.56. `Cc1ccc2c(C)c(C(=O)Nc3nnc(C)s3)oc2c1` [3,6-dimethyl-N-(5-methyl-1,3,4-thiadiazol-2-yl)-1-benzofuran-2-carboxamide] showed a pEC50 of less than 3.52. For `COc1cccc(NC(=O)CN(C)C(=O)c2cc(-c3ccc(F)cc3)nc3ccccc23)c1`, the pEC50 was less than 3.52. For `COc1ccc(C(=O)NC(=S)NC2CCCCC2)cc1`, the pEC50 was less than 3.52. `CC(=O)c1coc2ccc(OCC(=O)O)cc12` [2-[(3-acetyl-5-benzofuranyl)oxy]acetic acid] gave a pEC50 of 4.25. Work on `Cn1ncc(Br)c1C(=O)Nc1cccc(C(F)(F)F)c1` [MLS000711234] yielded a pEC50 of less than 3.52. `CCN(CC)Cc1c(O)ccc2occ(C(=O)c3ccc(OC)cc3)c12` [[4-(diethylaminomethyl)-5-oxidanyl-1-benzofuran-3-yl]-(4-methoxyphenyl)methanone] gave a pEC50 of less than 3.52. `Cn1ncnc2c(=O)n(C)c(=O)nc1-2` showed a pEC50 of 4.20. `O=C(Nc1ccc(O)c2c(=O)cc(-c3ccccc3Cl)oc12)c1cccs1` [SMR000465219] gave a pEC50 of 4.78. `Nc1nc(NCc2ccco2)nc(NC2CCCCC2)c1[N+](=O)[O-]` [MLS000769818] showed a pEC50 of less than 3.52. `CC(C)CNc1nc(N)c([N+](=O)[O-])c(NCC2CCCO2)n1` (centres undefined) gave a pEC50 of 5.21. `COc1cccc2cc(CC(=O)c3cc(C)ccc3C)c(=O)oc12` [MLS001198676] was tested, and the pEC50 was less than 3.52. `c1ccc(Nc2nc(-c3ccncc3)nc3ccccc23)cc1` showed a pEC50 of 4.66. Work on `CSc1nc(SCC(=O)NCC2CCCO2)c2c3c(sc2n1)CN(C)CC3` (centres undefined) [2-[(7-methyl-2-methylsulfanyl-6,8-dihydro-5H-pyrido[2,3]thieno[2,4-b]pyrimidin-4-yl)sulfanyl]-N-(oxolan-2-ylmethyl)ethanamide] yielded a pEC50 of 4.64. In the case of `O=C(Nc1cc(-c2ccccc2)n[nH]1)c1ccccc1` [SMR000459251], the pEC50 was less than 3.52. Work on `CC1(C)Oc2ccc(C(=O)N3CCOCC3)cc2N(CC(=O)N2CCOCC2)C1=O` yielded a pEC50 of less than 3.52. For `Cc1cc2c(=O)oc(-c3ccc(F)cc3)nc2s1`, the pEC50 was less than 3.52. With `CCOC(=O)Cc1csc(NC(=O)CSc2nc(-c3ccccc3)c(C#N)c(=O)[nH]2)n1` [MLS000690700] the pEC50 was less than 3.52. Work on `COCCCNc1nc(N)c([N+](=O)[O-])c(NC2CCCCC2)n1` [MLS001165157] yielded a pEC50 of 6.07. In the case of `Cc1ccc2c(c1)=C(NN1C(=O)c3ccccc3C1=O)C(=O)N=2` [MLS000573597], the pEC50 was less than 3.52. Work on `CCC(C)NC(=O)CNC(=S)N(CCCN1CCOCC1)Cc1cccs1` (centres undefined) [N-butan-2-yl-2-[[3-morpholin-4-ylpropyl(thiophen-2-ylmethyl)carbamothioyl]amino]ethanamide] yielded a pEC50 of less than 3.52. Molecule `CN1CCN(CCNC(=O)Nc2ccccc2[N+](=O)[O-])CC1` [N-[2-(4-methylpiperazin-1-yl)ethyl]-N'-(2-nitrophenyl)urea] has a pEC50 of less than 3.52. Molecule `Cc1cc(NC(=O)CSc2ccc3nnc(-c4ccc(F)cc4)n3n2)no1` [2-{[3-(4-fluorophenyl)[1,2,4]triazolo[4,3-b]pyridazin-6-yl]thio}-N-(5-methylisoxazol-3-yl)acetamide] has a pEC50 of less than 3.52. For `COc1ccc(OC)c(CCNC(=O)c2ccc3c(=O)[nH]c4c(C(=O)NC(C)C)sc(=S)n4c3c2)c1`, the pEC50 was less than 3.52. `COc1cccc(C(=O)Nc2ccc(C(=O)NCC(C)C)cc2)c1` [SMR000292523] was tested, and the pEC50 was less than 3.52. For `CCC(Sc1ccc2nnc(-c3ccc(F)cc3)n2n1)C(=O)O` (centres undefined) [2-[[3-(4-fluorophenyl)-[1,2,4]triazolo[4,3-b]pyridazin-6-yl]thio]butanoic acid], the pEC50 was 4.53. Work on `CN(C)CC(=O)N1c2ccccc2Sc2ccc(Cl)cc21` yielded a pEC50 of less than 3.52. With `O=C(Nc1cccc(NC(=O)c2ccc3c(c2)OCO3)c1)c1ccccc1` [MLS000706176] the pEC50 was less than 3.52. `Cc1ccccc1NC(=O)CN1C(=O)c2ccccc2C1=O` [2-[1,3-bis(oxidanylidene)isoindol-2-yl]-N-(2-methylphenyl)ethanamide] gave a pEC50 of less than 3.52. With `Fc1ccc(CSc2nnc(-c3ccncc3)o2)cc1` the pEC50 was less than 3.52. Work on `Cc1nn(C)c(C(=O)N2CCc3ccccc32)c1Br` [SMR000228334] yielded a pEC50 of less than 3.52. Molecule `CCN1CCN(CCCNC(=O)c2ccc3c(c2)NC(=O)c2ccccc2S3)CC1` [N-[3-(4-ethylpiperazin-1-yl)propyl]-6-oxo-5H-benzo[b][1,4]benzothiazepine-3-carboxamide] has a pEC50 of less than 3.52. `COc1ccc(-c2nn(CCC#N)cc2CN=O)cc1OC` [3-[3-(3,4-dimethoxyphenyl)-4-(hydroxyiminomethyl)pyrazol-1-yl]propanenitrile] showed a pEC50 of less than 3.52. For `Nc1ccc2oc(-c3ccccc3Cl)cc(O)c-2c1=O` [6-amino-2-(2-chlorophenyl)-5-hydroxy-1-benzopyran-4-one], the pEC50 was less than 3.52. Work on `CCOC(=O)c1cnc2ccc(Cl)cc2c1Nc1ccc(S(=O)(=O)Nc2ncccn2)cc1` [ethyl 6-chloro-4-[4-(pyrimidin-2-ylsulfamoyl)anilino]quinoline-3-carboxylate] yielded a pEC50 of 3.97. With `O=C(COC(=O)c1cc(=O)c2ccccc2o1)NC1CCCC1` [MLS001017387] the pEC50 was less than 3.52. `CCn1c(-c2nn(C)cc2Cl)n[nH]c1=S` [MLS000703969] showed a pEC50 of less than 3.52. Molecule `COc1cc(C(c2nnnn2C(C)(C)C)N2CCN(c3nc4ccccc4s3)CC2)ccc1O` (centres undefined) [MLS000027473] has a pEC50 of less than 3.52.
